# Literature values, collected in patent US7371877B2, “Glycerol ester derivative” (FUJIFILM Corporation, priority 2002, dated 2008).
# Conditions: J. Med. Chem., 25, 1500 (1982); cited from earlier work
structure (smiles),measurement,value
CCC(Cc1c(I)cc(I)c(N)c1I)C(=O)OC1CCC2(C)C(=CCC3C2CCC2(C)C(C(C)CCCC(C)C)CCC32)C1 (stereo not shown) [Cholesterol iopanoate],Accumulation in the liver,known to accumulate in the liver of a living body
